Measured values from patent US6268181A, “Methods for producing a potentiator of Bacillus pesticidal activity” (Valent BioSciences, Corporation, priority 1998, dated 2001).

Tests used:
Spodoptera exigua [1] = test: Spodoptera exigua micro-bioassay (potentiation of Bt Cry protein by Ia); type: in vivo
Protocol: Activity is monitored by a Spodoptera exigua micro-bioassay, and purity is determined by capillary electrophoresis. […] The trays containing the various samples are air dried. Two to four 2nd or early 3rd instar Spodoptera exigua are added to the wells containing the dried sample. The wells are sealed with mylar poked with holes and are incubated for 2-3 days at 30° C. Degree of stunting and percent mortality are then recorded. Typically, 5 replicate wells are run for each sample.
*Mortality = # insects dead/# total insects after 2 days
.dagger.Stunt score is defined by the average size of the live insect
larvae at the end of the bioassay: 4.0 = untreated control, 3.0 = 75% size
of untreated control, 2.0 = 50% size of untreated control, 1.0 = 25% size
of untreated control, 0.0 = no growth or size unchanged from start of […]

[2] = Stability of Ia determined by bioassay; type: physicochemical
Protocol: Activity is monitored by a Spodoptera exigua micro-bioassay, and purity is determined by capillary electrophoresis. Sample consisting of 50 μl of Ia and 50 μl of CryIA(c) protein (15 μg/ml) purified from BIOBIT™ FC (100 μl), is applied to individual wells of a jelly tray containing 500 μl of solidified artificial insect diet. The trays containing the various samples are air dried. Two to four 2nd or early 3rd instar Spodoptera exigua are added to the wells containing the dried sample. The wells are sealed with mylar poked with holes and are incubated for 2-3 days at 30° C. Degree of stunting and percent mortality are then recorded. Typically, 5 replicate wells are run for each sample.
Further, it is stable when subjected to direct sunlight for at least 10 hours. Ia is stable at pH 2 for 3 days, but unstable at pH 12.

[3] = Solubility of the active compound; type: physicochemical
Spodoptera exigua [4] = test: Diet incorporation bioassay, third instar Spodoptera exigua; type: in vivo
Protocol: (§1) B.t.k. activity is determined by an artificial diet incorporation bioassay using third instar Spodoptera exigua larvae, second instar Helicoverpa zea larvae, third instar Spodoptera frugiperda larvae, second instar Heliothis virescens larvae, third instar Trichoplusia ni larvae, third instar Pseudoplusia includens larvae, third instar Plutella xylostella larvae, third instar Spodoptera littoralis, and third instar Mamestra brassicae larvae.
(§2) To determine the level of potentiation by adding Ia to B.t. products, and establish the range of insects that are affected, diet incorporation bioassays are performed. In the experiments with high concentrations of Ia against Spodoptera exigua (7.4-23.7 g Ia/BIU), purified Ia (70% active ingredient, 30% acetate counter ion) is used to potentiate BIOBIT™ FC (FC represents flowable concentrate). […] S. littoralis and M. brassicae are tested using FLORBAC™ HPWP and Ia.
(§3) The various B.t. products are weighed and Ia is added to give 0.1 to 237 g Ia/BIU. The volume is adjusted with 0.1% Tween™. The samples are sonicated for 1 minute and then diluted to final volume. Neat samples (without Ia) and reference substances are prepared as well. Reference substances include B.t.k.
(§4) Standard artificial diet composed of water, agar, sugar, casein, wheat germ, methyl paraben, sorbic acid, linseed oil, cellulose, salts, and vitamins are prepared in a 20 L heated kettle. This provides enough diet to test 10 to 12 samples with seven different concentrations of each test substance. The B.t. solutions are serially diluted to give 16 ml aliquots. Each aliquot is added to 184 g of molten diet. The mixture is subsequently homogenized and then poured into a plastic tray bearing 40 individual cells. Three control trays are prepared for each batch of diet. Once the diet has cooled and solidified, one insect of a known age (2-3 instar) is added to each cell, and the trays are covered with a perforated sheet of clear mylar. The trays are placed on racks and incubated for four days at 28° C. and 65% relative humidity.
(§5) After four days, insect mortality is rated. […] Percent mortality is calculated and the data is analyzed via parallel probit analysis. LC50 s, LC90 s, the slope of the regression lines, coefficient of variation, and potencies are estimated. Samples are run a minimum of 3 times or until three potencies are within 20% of a calculated mean for each sample. To calculate the increase in activity associated with each concentration of Ia, the LC50 of the B.t./Ia sample is corrected to reflect the amount of B.t. in the sample. The Lc50 s of the paired neat samples are divided by the corrected LC50 values to give the fold reduction in LC50 associated with Ia.
The potentiation of various produces on Spodoptera exigua by Ia is determined using diet incorporation bioassays described supra. Ia/B.t. product mixture is incorporated into an agar-based wheat germ casein diet. The insects are placed on the diet for four days and held at 28° C. Mortality is recorded and analyzed using probit analysis. LC50, LC90 and potency are calculated from matched product lacking Ia. The results shown in Table V indicate that Ia potentiate various B.t.k. and B.t.a. products obtained from various sources. The B.t. strains contained in these products are described in Section 5.2., supra.

Spodoptera frugiperda = test: Diet incorporation bioassay, third instar Spodoptera frugiperda; type: in vivo; conditions: BIOBIT HPWP
Protocol: as §1, §2, §3, §4, §5

Trichoplusia ni = test: Diet incorporation bioassay, third instar Trichoplusia ni; type: in vivo; conditions: BIOBIT HPWP
Protocol: as §1, §2, §3, §4, §5

Pseudoplusia includens = test: Diet incorporation bioassay, third instar Pseudoplusia includens; type: in vivo; conditions: BIOBIT HPWP
Protocol: as §1, §2, §3, §4, §5

Plutella xylostella = test: Diet incorporation bioassay, third instar Plutella xylostella; type: in vivo; conditions: BIOBIT HPWP
Protocol: as §1, §2, §3, §4, §5

Helicoverpa zea = test: Diet incorporation bioassay, second instar Helicoverpa zea; type: in vivo; conditions: BIOBIT HPWP, 3.2 g Ia per BIU
Protocol: as §1, §2
as §3, with “B.t.k. […]” for “B.t.k.”
(§6) After four days, insect mortality is rated. […] Percent mortality is calculated and the data is analyzed via parallel probit analysis. […]

Heliothis virescens = test: Diet incorporation bioassay, second instar Heliothis virescens; type: in vivo; conditions: BIOBIT HPWP, 3.2 g Ia per BIU
Protocol: as §1, §2
as §3, with “B.t.k. […]” for “B.t.k.”
as §6

Lobesia bothrana = Lobesia bothrana assay (larvae drinking dilution, grape berries); type: in vivo; conditions: BIOBIT HPWP, 2.0 g Ia per BIU
Protocol: The following procedure is used to assay for Lobesia bothrana. Vine grapes attacked by Lobesia bothrana are collected in an unsprayed field and larva is removed. A dilution series of Ia (250 μg/ml, 500 μg/ml, and 1000 μg/ml) is made in water. One larva is put in the middle of the petri dish. If the larva is observed to drink, it is moved into a petri dish with freshly cut grape berries. The larvae are stored at 22° C. for 3-4 days.

Spodoptera littoralis = test: Diet incorporation bioassay, third instar Spodoptera littoralis; type: in vivo; conditions: FLORBAC HPWP, 2.0 g Ia per BIU
Protocol: as §1, §2
as §3, with “B.t.k. […]” for “B.t.k.”
as §6

Mamestra brassicae = test: Diet incorporation bioassay, third instar Mamestra brassicae; type: in vivo; conditions: FLORBAC HPWP, 2.0 g Ia per BIU
Protocol: as §1, §2
as §3, with “B.t.k. […]” for “B.t.k.”
as §6

SMILES: NC(=O)NCC(NC(=O)C(O)C(O)C(N)C(O)CC(O)C(N)CO)C(N)=O (centres unmarked) [Ia]
- potentiation of crystal delta-endotoxin (Spodoptera exigua [1]; Bacillus thuringiensis subsp. kurstaki and aizawai crystal delta-endotoxin proteins): potentiate the activity
- level of potentiation (Spodoptera exigua [1]; CryIC inclusions): 250 fold
- potentiation of pesticidal activity (Spodoptera exigua [1]; CryII and CryIC inclusions): also potentiated
- potentiation (Spodoptera exigua [1]; CryII inclusions): 125 fold
- Mortality (Spodoptera exigua [1]; Ia alone, no Bt protein, after 2 days): 0/5
- Stunt Score (Spodoptera exigua [1]; Ia alone, no Bt protein, 4.0 = untreated control, 0.0 = no growth): 4.0
- potentiation of pesticidal activity (Spodoptera exigua [1]; formulated B.t.k., isolated crystals, full-length or truncated CryIA proteins): all potentiated
- level of potentiation (Spodoptera exigua [1]; full-length CryIA(c)): approximately 320 fold
- potentiation of pesticidal activity (Spodoptera exigua [1]; individual truncated CryIA(a), (b), and (c) proteins): potentiate the activity
- level of potentiation (Spodoptera exigua [1]; truncated CryIA proteins, CryII and CryIC inclusions): 100-200 fold
- activity of Ia alone (Spodoptera exigua [1]; without Cry protein): inactive alone
- stability ([2]; autoclaving (>190C)): loses all activity
- stability ([2]; boiling for 5 minutes): stable
- stability ([2]; direct sunlight for at least 10 hours): stable
- stability ([2]; exposed to periodic acid or concentrated HCl): lose all activity
- stability ([2]; pH 2 for 3 days): stable
- stability ([2]; pH 12): unstable
- solubility in organic solvents ([3]; organic solvents): not soluble in organic solvents
- water solubility ([3]; water): water soluble
- Increase in activity, Fold reduction in LC50 (Spodoptera exigua [4]; BIOBIT FC, 7.4 g Ia per BIU, purified Ia): 13 Fold
- Increase in activity, Fold reduction in LC50 (Spodoptera exigua [4]; BIOBIT FC, 15 g Ia per BIU, purified Ia): 26 Fold
- Increase in activity, Fold reduction in LC50 (Spodoptera exigua [4]; BIOBIT FC, 30 g Ia per BIU, purified Ia): 34 Fold
- Increase in activity, Fold reduction in LC50 (Spodoptera exigua [4]; BIOBIT FC, 118 g Ia per BIU, purified Ia): 59 Fold
- Increase in activity, Fold reduction in LC50 (Spodoptera exigua [4]; BIOBIT FC, 237 g Ia per BIU, purified Ia): 79 Fold
- Increase in activity, Fold reduction in LC50 (Spodoptera exigua [4]; BIOBIT HPWP, 0.1 g Ia per BIU): 1.5 Fold
- Increase in activity, Fold reduction in LC50 (Spodoptera exigua [4]; BIOBIT HPWP, 0.2 g Ia per BIU): 1.7 Fold
- Increase in activity, Fold reduction in LC50 (Spodoptera exigua [4]; BIOBIT HPWP, 2.0 g Ia per BIU): 4.3 Fold
- Increase in activity, Fold reduction in LC50 (Spodoptera exigua [4]; BIOBIT HPWP, 4.0 g Ia per BIU): 7.5 Fold
- Increase in activity, Fold reduction in LC50 (Spodoptera frugiperda; 0.2 g Ia per BIU): 2.2 Fold
- Increase in activity, Fold reduction in LC50 (Spodoptera frugiperda; 0.8 g Ia per BIU): 3.9 Fold
- Increase in activity, Fold reduction in LC50 (Spodoptera frugiperda; 2.0 g Ia per BIU): 7.2 Fold
- Increase in activity, Fold reduction in LC50 (Spodoptera frugiperda; 4.0 g Ia per BIU): 11.6 Fold
- Increase in activity, Fold reduction in LC50 (Trichoplusia ni; 0.1 g Ia per BIU): 1.1 Fold
- Increase in activity, Fold reduction in LC50 (Trichoplusia ni; 0.2 g Ia per BIU): 1.2 Fold
- Increase in activity, Fold reduction in LC50 (Trichoplusia ni; 2.0 g Ia per BIU): 2.0 Fold
- Increase in activity, Fold reduction in LC50 (Trichoplusia ni; 4.0 g Ia per BIU): 3.1 Fold
- Increase in activity, Fold reduction in LC50 (Pseudoplusia includens; 0.1 g Ia per BIU): 0 Fold
- Increase in activity, Fold reduction in LC50 (Pseudoplusia includens; 0.2 g Ia per BIU): 1.2 Fold
- Increase in activity, Fold reduction in LC50 (Pseudoplusia includens; 0.8 g Ia per BIU): 2.1 Fold
- Increase in activity, Fold reduction in LC50 (Pseudoplusia includens; 2.0 g Ia per BIU): 2.4 Fold
- Increase in activity, Fold reduction in LC50 (Pseudoplusia includens; 4.0 g Ia per BIU): 3.4 Fold
- Increase in activity, Fold reduction in LC50 (Plutella xylostella; 0.2 g Ia per BIU): 1.6 Fold
- Increase in activity, Fold reduction in LC50 (Plutella xylostella; 0.8 g Ia per BIU): 1.3 Fold
- Increase in activity, Fold reduction in LC50 (Plutella xylostella; 2.0 g Ia per BIU): 1.4 Fold
- Increase in activity, Fold reduction in LC50 (Plutella xylostella; 4.0 g Ia per BIU): 1.9 Fold
- Increase in activity, Fold reduction in LC50 (Helicoverpa zea): 12.6 Fold
- Increase in activity, Fold reduction in LC50 (Heliothis virescens): 4.2 Fold
- Increase in activity, Fold reduction in LC50 (Lobesia bothrana): 3.0 Fold
- Increase in activity, Fold reduction in LC50 (Spodoptera littoralis): 8.6 Fold
- Increase in activity, Fold reduction in LC50 (Mamestra brassicae): 4.9 Fold
